Test results from patent US7709516B2, “Helix 12 directed non-steroidal antiandrogens” (Endorecherche, Inc., priority 2005, dated 2010).
Read-outs that look alike come from different tables or passages of the source.

Key:
[1] = test system: rat prostate, seminal vesicle, levator ani muscle; assay: Systemic antiandrogenic activity in orchidectomized immature male rats with DHT implant; format: in vivo; settings: rat +DHT, 0.5 mg/animal daily 7 days; for inhibition in vivo at 0.5 mg: Rattus norvegicus, 168 h
[2] = test system: rat prostate, seminal vesicle, levator ani muscle; assay: Systemic androgenic activity in orchidectomized immature male rats; format: in vivo; settings: 168 h, 0.2 mg/animal daily 7 days
From the text: Column 7 represents the % of androgenic efficacy in rat prostate, expressed in percentage of stimulation:
W is the weight of the prostate.
Column 8 represents the % of androgenic efficacy in rat seminal vesicle, expressed in percentage of stimulation:
W is the weight of the seminal vesicle.
Column 9 represents the % of androgenic efficacy in rat levator ani muscle, expressed in percentage of stimulation: […]
Immature male rats (Crl:CD(SD)Br) 22 to 24-day old were obtained from Charles-River, Inc. (St-Constant, Quebec, Canada) and housed up to 5 per cage in plastic bins in a temperature (23±1° C.)— and light (12 h light/day, lights on at 7h15)— controlled environment. The rats were fed rodent chow and tap water ad libitum. The day following their arrival, the animals were orchidectomized (CX) under Isoflurane anesthesia via scrotal route and randomly assigned to groups of 5 animals.
To evaluate the antiandrogenic activity, tested compounds were administered subcutaneously or orally once daily at a dose of 0.5 mg/animal for antiandrogenitic activity or 0.2 mg/animal for androgenic activity for 7 days (SD 1 to 7). Compounds were solubilized (when possible) in dimethylsulfoxide (DMSO, 10% final concentration) and administered as suspension in 0.4% methylcellulose. […] One group of animals received the antiandrogen Flutamide as reference. The animals were killed by cervical dislocation under isoflurane anesthesia on the 8th morning following castration. The ventral prostate and seminal vesicles were rapidly dissected and weighed.
3. Calculations and Statistical Analysis
W is the weight of the prostate, the seminal vesicle or levator ani.

[3] = test system: Shionogi mouse mammary carcinoma cells; assay: Androgenic/antiandrogenic activity: inhibition of DHT-stimulated Shionogi cell number; format: cell-based; settings: DHT-stimulated Shionogi cell number; for IC50: Mus musculus; for Shionogi Antiandrogenic Activity IC50: Table 3
[4] = target: T1, Human Androgen Receptor (Homo sapiens, UniProt P10275); assay: Androgen receptor binding assay ([3H]R1881, HAP) in cytosol of HEK-293 cells transfected with hAR; settings: relative to R1881 = 100, transfected cells
T1 sequence (P10275 1-920): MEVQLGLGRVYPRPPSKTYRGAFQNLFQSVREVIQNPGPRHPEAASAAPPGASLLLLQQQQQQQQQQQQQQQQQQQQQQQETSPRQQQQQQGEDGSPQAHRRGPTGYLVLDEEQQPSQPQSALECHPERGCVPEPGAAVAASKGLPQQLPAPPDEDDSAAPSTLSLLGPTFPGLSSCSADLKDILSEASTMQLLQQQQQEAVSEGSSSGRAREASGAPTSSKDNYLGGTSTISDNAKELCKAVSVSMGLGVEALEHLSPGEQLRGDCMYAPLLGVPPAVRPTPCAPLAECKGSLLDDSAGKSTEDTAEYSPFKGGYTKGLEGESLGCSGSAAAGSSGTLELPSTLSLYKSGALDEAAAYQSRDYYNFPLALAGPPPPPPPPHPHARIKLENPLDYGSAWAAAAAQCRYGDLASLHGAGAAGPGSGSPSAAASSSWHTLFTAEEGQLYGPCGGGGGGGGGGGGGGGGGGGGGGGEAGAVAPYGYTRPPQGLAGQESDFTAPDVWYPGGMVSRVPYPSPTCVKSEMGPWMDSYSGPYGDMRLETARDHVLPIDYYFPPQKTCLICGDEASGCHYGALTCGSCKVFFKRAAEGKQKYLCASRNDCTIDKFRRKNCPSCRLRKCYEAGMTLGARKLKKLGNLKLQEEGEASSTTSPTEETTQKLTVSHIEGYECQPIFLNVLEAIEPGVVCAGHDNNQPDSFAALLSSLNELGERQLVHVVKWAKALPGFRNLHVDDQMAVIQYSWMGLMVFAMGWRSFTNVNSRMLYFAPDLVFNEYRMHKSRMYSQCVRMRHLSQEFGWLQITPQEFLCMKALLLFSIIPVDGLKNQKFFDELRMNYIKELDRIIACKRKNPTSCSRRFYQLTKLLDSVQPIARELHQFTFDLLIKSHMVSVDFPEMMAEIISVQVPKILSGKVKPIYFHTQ

[5] = sc, Table 3, s.c (marked in prostate cell), read-out: % Stimulation Lev.Ani
[6] = sc, Table 3, s.c (marked in prostate cell), read-out: % Stimulation SV
[7] = sc, Table 3, s.c, read-out: % Stimulation Prostate
[8] = read-out: Shionogi Antiandrogenic Activity IC50, Table 3, agonist reported when compound stimulates the cells
[9] = agonist reported when compound stimulates the cells
[10] = Table 3, p.o (marked in prostate cell)
[11] = read-out: Lev Ani % inhibition, Table 2, s.c. or p.o. (route not marked), levator ani
[12] = read-out: Prostate % inhibition, Table 2, s.c. or p.o. (route not marked)
[13] = read-out: SV % inhibition, Table 2, s.c. or p.o. (route not marked), seminal vesicle
[14] = read-out: Shionogi Antiandrogenic Activity IC50, Table 2
[15] = Prostate cell, po, read-out: Lev Ani % inhibition, Table 1, p.o, levator ani
[16] = Prostate cell, po, read-out: SV % inhibition, Table 1, p.o, seminal vesicle
[17] = po, read-out: Prostate % inhibition, Table 1, p.o
[18] = read-out: Shionogi Antiandrogenic Activity IC50, Table 1

## Cc1c(N2C(=O)C(C)(C)N(CCCOc3ccc(CNC(C)C)cc3)C2=S)ccc(C#N)c1Cl [EM-7198]
[1]; Table 3, s.c
  % Inhibition Prostate: 15 s.c %
[2]; [5]
  change in vivo at 0.2 mg: 182%
[2]; [6]
  change in vivo at 0.2 mg: 106%
[2]; [7]
  change in vivo at 0.2 mg: 65%
[3]; [8]
  IC50: 0.01 µM
[4]; Table 3
  Human Androgen Receptor Binding (%) RBA R1881 = 100: 44%

## Cc1c(N2C(=O)C(C)(C)N(CCCOc3ccc(CN(C)C)cc3)C2=S)ccc(C#N)c1Cl [EM-7298]
[1]; Table 3, s.c (marked in prostate cell)
  % Inhibition Lev.Ani: 14%
[1]; Table 3, s.c
  % Inhibition Prostate: 36 s.c %
[2]; [5]
  change in vivo at 0.2 mg: 103%
[2]; [6]
  change in vivo at 0.2 mg: 29%
[2]; [7]
  change in vivo at 0.2 mg: 33%
[3]; [8]
  IC50: 0.0082 µM
[4]; Table 3
  Human Androgen Receptor Binding (%) RBA R1881 = 100: 61%

## Cc1cc(CN2CCOCC2)ccc1OCCCN1C(=S)N(c2ccc(C#N)c(Cl)c2C)C(=O)C1(C)C [EM-8255]
[1]; Table 3, s.c
  % Inhibition Prostate: 17 s.c %
[2]; [5]
  change in vivo at 0.2 mg: 80%
[2]; [6]
  change in vivo at 0.2 mg: 31%
[2]; [7]
  change in vivo at 0.2 mg: 32%
[3]; [9]
  Shionogi Antiandrogenic Activity IC50: Partial agonist
[4]; Table 3
  Human Androgen Receptor Binding (%) RBA R1881 = 100: 76%

## Cc1c(N2C(=O)C(C)(C)N(CCCOc3ccc(S(C)(=O)=O)cc3)C2=S)ccc(C#N)c1Cl [EM-8260, 4-(3-{3-[4-(1-methylsulfonyl)-phenoxy]-propyl}-4,4-dimethyl-5-oxo-2-thioxo-imidazolidin-1-yl)-2-chloro-3-methyl-benzonitrile]
[1]; [10]
  % Inhibition Lev.Ani: 24%
  % Inhibition SV: 54%
[1]; Table 3, p.o
  % Inhibition Prostate: 40 p.o %
[2]; po, Table 3, p.o (marked in prostate cell), read-out: % Stimulation Lev.Ani
  change in vivo at 0.2 mg: 74%
[2]; po, Table 3, p.o (marked in prostate cell), read-out: % Stimulation SV
  change in vivo at 0.2 mg: 28%
[2]; po, Table 3, p.o, read-out: % Stimulation Prostate
  change in vivo at 0.2 mg: 27%
[3]; [9]
  Shionogi Antiandrogenic Activity IC50: Partial agonist
[4]; Table 3
  Human Androgen Receptor Binding (%) RBA R1881 = 100: 17%

## N#Cc1ccc(N2CCC(O)(CCOc3ccc4oc(=O)ccc4c3)CC2)cc1C(F)(F)F [EM-8284]
[1]; [11]
  inhibition in vivo at 0.5 mg: 21%
[1]; [12]
  inhibition in vivo at 0.5 mg: 0%
[1]; [13]
  inhibition in vivo at 0.5 mg: 0%
[3]; [14]
  IC50: 0.0128 µM
[4]; Table 2
  Human Androgen Receptor Binding (%) RBA R1881 = 100: <1.0%

## Cc1cc(=O)oc2ccc(OCCC3(O)CCN(c4ccc(C#N)c(C(F)(F)F)c4)CC3)cc12 [EM-8285]
[1]; [11]
  inhibition in vivo at 0.5 mg: 0%
[1]; [12]
  inhibition in vivo at 0.5 mg: 0%
[1]; [13]
  inhibition in vivo at 0.5 mg: 0%
[3]; [14]
  IC50: 0.0183 µM
[4]; Table 2
  Human Androgen Receptor Binding (%) RBA R1881 = 100: <1.0%

## Cc1cc(=O)oc2cc(OCCCN3C(=S)N(c4ccc(C#N)c(C(F)(F)F)c4)C(=O)C3(C)C)ccc12 [EM-8329]
[1]; [15]
  inhibition in vivo at 0.5 mg: 17%
[1]; [16]
  inhibition in vivo at 0.5 mg: 58%
[1]; [17]
  inhibition in vivo at 0.5 mg: 42%
[3]; [18]
  IC50: 0.0091 µM
[4]; Table 1
  Human Androgen Receptor Binding (%) RBA R1881 = 100: 170.0%

## CC1(C)C(=O)N(c2ccc(C#N)c(C(F)(F)F)c2)C(=S)N1CCCOc1ccc(SC(F)(F)F)cc1 [EM-8342]
[1]; [15]
  inhibition in vivo at 0.5 mg: 53%
[1]; [16]
  inhibition in vivo at 0.5 mg: 79%
[1]; [17]
  inhibition in vivo at 0.5 mg: 43%
[3]; [18]
  IC50: 0.0667 µM
[4]; Table 1
  Human Androgen Receptor Binding (%) RBA R1881 = 100: 0.5%
